Reference: US7074807B2, “Compositions and methods for inducing cell death” (Georgetown University, priority 1998, dated 2006)

Experiments:
MDA-MB 231 cells = experiment: Ceramide generation assay (DAG kinase assay); type: cell-based, human; details: 10 mM
Procedure: FIG. 8. Ceramide production in tempo-treated MDA-MB 231 cells. Logarithmically growing cells were cultured in serum-free medium overnight in 60 mm dishes, and treated with tempol (10 mM) and tempo (10 mM) for indicated times, followed by lipid extraction, and quantitation of ceramide by DAG kinase assay as described in experimental procedures. The organic phase extract containing the [γ^32P]-labeled ceramide was quantitated. Control cells were grown overnight in serum-free medium, followed by treatment with 1% ethanol for various times ranging from 0.5 h to 2 h. Tempol/tempo treatment values shown are the mean±s.d. of triplicate determinations, the value at each time point normalized to control (100%).
Ceramide Generation Assay—Ceramide production in MDA-MB 231 cells was determined by diacylglycerol (DAG) kinase assay according to a previously described procedure (Haimovitz-Friedman, A. et al., 1994, J. Exp. Med. 180, 525–535; Dressler, K. A. and Kolesnick, R. N., 1990, J. Biol. Chem. 265, 14917–14921). Briefly, MDA-MB 231 cells were split (1:2), and after 24 h, the cells were washed twice with PBS and serum-free medium was added, followed by incubation for additional 24 h. The cells (˜2×10^6/60 mm dish) were treated with tempo (10 mM) or tempol (10 mM) for various times. Following treatment, floating cells were collected and pelleted by centrifugation for 10 min at 1200 rpm, and attached cells were collected by scraping. Lipids were extracted from all cells (floating and attached) by incubation in 1 ml 100% ice-cold methanol. After a partial purification with chloroform, the extracted lipid in the organic phase was dried under N2 and was treated with a mild alkaline solution (0.1 N KOH in methanol) for 1 h at 37° C. to remove glycerolphospholipids. […] The spot containing the ceramide-1-phosphate was visualized by autoradiography, and the incorporated ^32P was removed by scraping, and quantified by Cerenkov counting. […]

ERK1 = ERK1 activity (MBP phosphorylation of ERK1 immunoprecipitates); type: cell-based, human; details: 10 mM, 2 h, MDA-MB 231 cells
Procedure: FIGS. 4A, 4B. Tempol stimulates ERK1 activity. […] WCL (1 mg) were immunoprecipitated with agarose-conjugated anti-ERK1 antibody, and in vitro MBP phosphorylation assay was performed as described in experimental procedures. The incorporation of γ^32P into MBP was determined in a filter binding assay 4A. In other independent experiments, the reaction products were electrophoresed on 15% SDS-PAGE and MBP (at ˜18 kDa) was visualized by autoradiography 4B. Cont/Control, cells grown overnight in serum-free medium, and treated with 1% ethanol for 2 h.
ERK and SAPK/JNK Activities—Whole cell lysates prepared as described above were immunoprecipitated (1 mg) with an agarose conjugated anti-ERK1 antibody or an agarose conjugated anti-JNK1 antibody for 2 h at 4° C. with constant agitation. The immune-complexes were washed 3 times in lysis buffer and once in KBB as mentioned earlier. ERK or JNK activity assay was carried out according to manufacturer's procedures (UBI). […] The radioactive filters were washed and counted as described above. […] The radiolabeled GST-cJun fusion protein was detected by autoradiography.

Structure (SMILES): CC1(C)CCCC(C)(C)N1[O] [tempo, 2,2,6,6-tetramethylpiperidine-N-oxyl]
- increase over control in ceramide level (MDA-MB 231 cells; 30 min, control normalized to 100%): 54%
- ceramide level over control (MDA-MB 231 cells; 1 h, control normalized to 100%): 71%
- increase in the enzymatic activity of ERK1 (ERK1): no change in ERK1 activity

Structure (SMILES): CC1(C)CC(O)CC(C)(C)N1[O] [tempol, 4-hydroxy-tempo, reference compound]
- level of ceramide generated compared to control cells (MDA-MB 231 cells; all time points): not significantly higher
- increase in the enzymatic activity of ERK1 (ERK1): Approximately 3 fold
